Read-outs that look alike come from different tables or passages of the source. Numbered stars: 1 amine (or outer) side, 2 acyl side, 3 side chain; on linkers, the order of the positions; unused ones are H or OH. Square brackets hold non-standard residues; d marks the D form. Side chains are listed from the residue outwards. Peptide text beside a SMILES is read from it. * marks the point of attachment. γGlu = O=C(O)[C@H](CCC(=O)[*:2])N[*:1]; X2 = O=C(CSCC(=O)*)NCCN1C(=O)CSC1=O; Palmitoyl = CCCCCCCCCCCCCCCC(=O)*; Aib = CC(C)(N)C(=O)O
Experiments:
GLP-1R = GLP-1R (Homo sapiens, UniProt P43220); test: HitHunter cAMP assay (GLP-1R); format: cell-based; settings: cAMP; for Emax: read-out: (Emax) GLP-1R
Sequence of GLP-1R (P43220 24-463): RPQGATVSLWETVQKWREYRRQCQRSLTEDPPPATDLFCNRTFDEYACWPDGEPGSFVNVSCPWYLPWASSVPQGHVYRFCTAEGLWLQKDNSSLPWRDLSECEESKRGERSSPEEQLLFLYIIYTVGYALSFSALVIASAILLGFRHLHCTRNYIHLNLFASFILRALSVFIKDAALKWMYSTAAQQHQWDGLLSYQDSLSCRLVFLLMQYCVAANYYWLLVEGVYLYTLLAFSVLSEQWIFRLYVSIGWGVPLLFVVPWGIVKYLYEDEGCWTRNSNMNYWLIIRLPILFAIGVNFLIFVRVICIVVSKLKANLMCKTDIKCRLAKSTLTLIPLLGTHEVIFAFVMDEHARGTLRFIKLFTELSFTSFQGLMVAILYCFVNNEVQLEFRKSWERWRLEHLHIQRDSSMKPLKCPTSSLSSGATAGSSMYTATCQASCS
How it was run: (§1)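 Suspension cells (10,000/well) in HBSS with 10 mM HEPES, 625 μM IBMX, 0.2% BSA exposed to 22-point 2-fold agonist series in duplicate for 30 min at room temperature. cAMP measured by antibody immunocompetition with overnight development, luminescence read-out.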

GIP-R = biological target: T1, GIP-R (Homo sapiens, UniProt P48546); test: HitHunter cAMP assay (GIP-R); format: cell-based; settings: cAMP; for Emax: read-out: (Emax) GIP-R
T1 sequence (P48546 22-466): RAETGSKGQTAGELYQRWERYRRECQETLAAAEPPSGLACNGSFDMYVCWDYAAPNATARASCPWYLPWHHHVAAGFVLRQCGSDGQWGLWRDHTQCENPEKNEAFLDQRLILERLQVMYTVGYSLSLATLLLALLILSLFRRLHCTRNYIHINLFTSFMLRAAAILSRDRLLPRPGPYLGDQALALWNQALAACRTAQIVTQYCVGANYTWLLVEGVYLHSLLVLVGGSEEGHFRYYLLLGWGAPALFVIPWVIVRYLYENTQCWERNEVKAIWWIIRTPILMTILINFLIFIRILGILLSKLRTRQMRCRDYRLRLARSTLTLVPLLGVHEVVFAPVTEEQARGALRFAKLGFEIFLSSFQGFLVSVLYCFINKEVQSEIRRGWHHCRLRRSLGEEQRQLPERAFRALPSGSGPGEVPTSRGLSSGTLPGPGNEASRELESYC
How it was run: as §1

[1] = Table 3, read-out: EC50 GLP-1R/nM
[2] = Table 3A, read-out: EC50 GLP-1R/nM
[3] = Table 3, read-out: EC50 GIP-R/nM
[4] = Table 3A, read-out: EC50 GIP-R/nM

SMILES: CCCCCCCCCCCCCCCC(=O)N[C@@H](CCC(=O)NCCCC[C@H](NC(=O)[C@H](CO)NC(=O)[C@@H]1CCCN1C(=O)[C@@H]1CCCN1C(=O)[C@@H]1CCCN1C(=O)[C@H](C)NC(=O)CNC(=O)[C@H](CO)NC(=O)[C@H](CO)NC(=O)[C@@H]1CCCN1C(=O)CNC(=O)CNC(=O)[C@H](C)NC(=O)[C@H](CC(C)C)NC(=O)[C@H](CC(C)C)NC(=O)[C@H](Cc1c[nH]c2ccccc12)NC(=O)[C@H](CC(N)=O)NC(=O)[C@@H](NC(=O)[C@H](Cc1ccccc1)NC(=O)[C@H](CCC(=O)O)NC(=O)C(C)(C)NC(=O)[C@H](C)NC(=O)[C@H](C)NC(=O)[C@H](CCC(N)=O)NC(=O)[C@H](CCCCN)NC(=O)[C@H](CC(=O)O)NC(=O)[C@H](CC(C)C)NC(=O)[C@H](Cc1ccc(O)cc1)NC(=O)[C@@H](NC(=O)[C@H](CO)NC(=O)[C@H](Cc1ccc(O)cc1)NC(=O)[C@H](CC(=O)O)NC(=O)[C@H](CO)NC(=O)[C@@H](NC(=O)[C@H](Cc1ccccc1)NC(=O)[C@@H](NC(=O)CNC(=O)[C@H](CCC(=O)O)NC(=O)CSCC(=O)NCCN1CC[C@@H](O)C1=O)[C@@H](C)O)[C@@H](C)O)[C@@H](C)CC)C(C)C)C(N)=O)C(=O)O [Compound 47]
- Emax (GLP-1R; Table 3): 100%
- EC50 (GLP-1R; [1]): < 0.1 nM
- Emax (GLP-1R; Table 3A): 100%
- EC50 (GLP-1R; [2]): < 0.1 nM
- Emax (GIP-R; Table 3): 24%
- EC50 (GIP-R; [3]): 1 to 10 nM
- Emax (GIP-R; Table 3A): 24%
- EC50 (GIP-R; [4]): 10 to 100 nM

SMILES: CC[C@H](C)[C@H](NC(=O)[C@H](CO)NC(=O)[C@H](Cc1ccc(O)cc1)NC(=O)[C@H](CC(=O)O)NC(=O)[C@H](CO)NC(=O)[C@@H](NC(=O)[C@H](Cc1ccccc1)NC(=O)[C@@H](NC(=O)CNC(=O)[C@H](CCC(=O)O)NC(=O)CCCCCCCCN1C(=O)CSC1=O)[C@@H](C)O)[C@@H](C)O)C(=O)N[C@@H](Cc1ccc(O)cc1)C(=O)N[C@@H](CC(C)C)C(=O)N[C@@H](CC(=O)O)C(=O)N[C@@H](CCCCN)C(=O)N[C@@H](CCC(N)=O)C(=O)N[C@@H](C)C(=O)N[C@@H](C)C(=O)NC(C)(C)C(=O)N[C@@H](CCC(=O)O)C(=O)N[C@@H](Cc1ccccc1)C(=O)N[C@H](C(=O)N[C@@H](CC(N)=O)C(=O)N[C@@H](Cc1c[nH]c2ccccc12)C(=O)N[C@@H](CC(C)C)C(=O)N[C@@H](CC(C)C)C(=O)N[C@@H](C)C(=O)NCC(=O)NCC(=O)N1CCC[C@H]1C(=O)N[C@@H](CO)C(=O)N[C@@H](CO)C(=O)NCC(=O)N[C@@H](C)C(=O)N1CCC[C@H]1C(=O)N1CCC[C@H]1C(=O)N1CCC[C@H]1C(=O)N[C@@H](CO)C(=O)N[C@@H](CCCCN)C(N)=O)C(C)C [Compound 174]
- Emax (GLP-1R; Table 3): 17 to 73%
- Emax (GLP-1R; Table 3A): 17 to 73%
- EC50 (GLP-1R; read-out: EC50 GLP-1R/nM, Table 3): 10 to 1000 nM
- EC50 (GLP-1R; read-out: EC50 GLP-1R/nM, Table 3A): 10 to 1000 nM
- EC50 (GIP-R; EC50 GIP-R/nM, Table 3): 100 to 1000 nM
- EC50 (GIP-R; EC50 GIP-R/nM, Table 3A): 100 to 1000 nM
- Emax (GIP-R; Table 3): 30 to 66%
- Emax (GIP-R; Table 3A): 30 to 66%

SMILES: CCCCCCCCCCCCCCCC(=O)N[C@@H](CCC(=O)NCCCC[C@H](NC(=O)[C@@H](NC(=O)[C@H](Cc1ccccc1)NC(=O)[C@H](CCC(=O)O)NC(=O)C(C)(C)NC(=O)[C@H](C)NC(=O)[C@H](C)NC(=O)[C@H](CCC(N)=O)NC(=O)[C@H](CCCCN)NC(=O)[C@H](CC(=O)O)NC(=O)[C@H](CC(C)C)NC(=O)[C@H](Cc1ccc(O)cc1)NC(=O)[C@@H](NC(=O)[C@H](CO)NC(=O)[C@H](Cc1ccc(O)cc1)NC(=O)[C@H](CC(=O)O)NC(=O)[C@H](CO)NC(=O)[C@@H](NC(=O)[C@H](Cc1ccccc1)NC(=O)[C@@H](NC(=O)CNC(=O)[C@H](CCC(=O)O)NC(=O)CSCC(=O)NCCN1C(=O)CSC1=O)[C@@H](C)O)[C@@H](C)O)[C@@H](C)CC)C(C)C)C(=O)N[C@@H](Cc1c[nH]c2ccccc12)C(=O)N[C@@H](CC(C)C)C(=O)N[C@@H](CC(C)C)C(=O)N[C@@H](C)C(=O)NCC(=O)NCC(=O)N1CCC[C@H]1C(=O)N[C@@H](CO)C(=O)N[C@@H](CO)C(=O)NCC(=O)N[C@@H](C)C(=O)N1CCC[C@H]1C(=O)N1CCC[C@H]1C(=O)N1CCC[C@H]1C(=O)N[C@@H](CO)C(=O)N[C@@H](CCCCN)C(N)=O)C(=O)O [Compound 197] (X2-EGTFTSDYSIYLDKQAA[Aib]EFVK([γGlu-Palmitoyl])WLLAGGPSSGAPPPSK-NH2)
- Emax (GLP-1R; Table 3A): 95%
- EC50 (GLP-1R; [2]): 10 to 100 nM
- Emax (GIP-R; Table 3A): 20%
- EC50 (GIP-R; [4]): 100 to 1000 nM

SMILES: CC[C@H](C)[C@H](NC(=O)[C@H](CO)NC(=O)[C@H](Cc1ccc(O)cc1)NC(=O)[C@H](CC(=O)O)NC(=O)[C@H](CO)NC(=O)[C@@H](NC(=O)[C@H](Cc1ccccc1)NC(=O)[C@@H](NC(=O)CNC(=O)[C@H](CCC(=O)O)NC(=O)CSCC(=O)NCCN1C(=O)CCc2cccnc21)[C@@H](C)O)[C@@H](C)O)C(=O)N[C@@H](Cc1ccc(O)cc1)C(=O)N[C@@H](CC(C)C)C(=O)N[C@@H](CC(=O)O)C(=O)N[C@@H](CCCCN)C(=O)N[C@@H](CCC(N)=O)C(=O)N[C@@H](C)C(=O)N[C@@H](C)C(=O)NC(C)(C)C(=O)N[C@@H](CCC(=O)O)C(=O)N[C@@H](Cc1ccccc1)C(=O)N[C@H](C(=O)N[C@@H](CC(N)=O)C(=O)N[C@@H](Cc1c[nH]c2ccccc12)C(=O)N[C@@H](CC(C)C)C(=O)N[C@@H](CC(C)C)C(=O)N[C@@H](C)C(=O)NCC(=O)NCC(=O)N1CCC[C@H]1C(=O)N[C@@H](CO)C(=O)N[C@@H](CO)C(=O)NCC(=O)N[C@@H](C)C(=O)N1CCC[C@H]1C(=O)N1CCC[C@H]1C(=O)N1CCC[C@H]1C(=O)N[C@@H](CO)C(=O)N[C@@H](CCCCN)C(N)=O)C(C)C [Compound 106]
- EC50 (GLP-1R; EC50 GLP-1R/nM, Table 3): 10 to 100 nM
- EC50 (GLP-1R; EC50 GLP-1R/nM, Table 3A): 10 to 100 nM
- Emax (GLP-1R; Table 3): 95%
- Emax (GLP-1R; Table 3A): 95%
- EC50 (GIP-R; EC50 GIP-R/nM, Table 3): 10 to 100 nM
- EC50 (GIP-R; EC50 GIP-R/nM, Table 3A): 10 to 100 nM
- Emax (GIP-R; Table 3): 37%
- Emax (GIP-R; Table 3A): 37%

SMILES: CCCCCCCCCCCCCCCC(=O)N[C@@H](CCC(=O)NCCCC[C@H](NC(=O)[C@H](CO)NC(=O)[C@@H]1CCCN1C(=O)[C@@H]1CCCN1C(=O)[C@@H]1CCCN1C(=O)[C@H](C)NC(=O)CNC(=O)[C@H](CO)NC(=O)[C@H](CO)NC(=O)[C@@H]1CCCN1C(=O)CNC(=O)CNC(=O)[C@H](C)NC(=O)[C@H](CC(C)C)NC(=O)[C@H](CC(C)C)NC(=O)[C@H](Cc1c[nH]c2ccccc12)NC(=O)[C@H](CC(N)=O)NC(=O)[C@@H](NC(=O)[C@H](Cc1ccccc1)NC(=O)[C@H](CCC(=O)O)NC(=O)C(C)(C)NC(=O)[C@H](C)NC(=O)[C@H](C)NC(=O)[C@H](CCC(N)=O)NC(=O)[C@H](CCCCN)NC(=O)[C@H](CC(=O)O)NC(=O)[C@H](CC(C)C)NC(=O)[C@H](Cc1ccc(O)cc1)NC(=O)[C@@H](NC(=O)[C@H](CO)NC(=O)[C@H](Cc1ccc(O)cc1)NC(=O)[C@H](CC(=O)O)NC(=O)[C@H](CO)NC(=O)[C@@H](NC(=O)[C@H](Cc1ccccc1)NC(=O)[C@@H](NC(=O)CNC(=O)[C@H](CCC(=O)O)NC(=O)CCCNC(=O)CCN1C(=O)CSC1=O)[C@@H](C)O)[C@@H](C)O)[C@@H](C)CC)C(C)C)C(N)=O)C(=O)O [Compound 51]
- Emax (GLP-1R; Table 3): 98%
- EC50 (GLP-1R; [1]): 0.1 to 1 nM
- Emax (GLP-1R; Table 3A): 98%
- EC50 (GLP-1R; [2]): 0.1 to 1 nM
- Emax (GIP-R; Table 3): 65%
- EC50 (GIP-R; [3]): 1 to 10 nM
- Emax (GIP-R; Table 3A): 65%
- EC50 (GIP-R; [4]): 1 to 10 nM

SMILES: CCCCCCCCCCCCCCCC(=O)N[C@@H](CCC(=O)NCCCC[C@H](NC(=O)[C@H](CO)NC(=O)[C@@H]1CCCN1C(=O)[C@@H]1CCCN1C(=O)[C@@H]1CCCN1C(=O)[C@H](C)NC(=O)CNC(=O)[C@H](CO)NC(=O)[C@H](CO)NC(=O)[C@@H]1CCCN1C(=O)CNC(=O)CNC(=O)[C@H](C)NC(=O)[C@H](CC(C)C)NC(=O)[C@H](CC(C)C)NC(=O)[C@H](Cc1c[nH]c2ccccc12)NC(=O)[C@H](CC(N)=O)NC(=O)[C@@H](NC(=O)[C@H](Cc1ccccc1)NC(=O)[C@H](CCC(=O)O)NC(=O)C(C)(C)NC(=O)[C@H](C)NC(=O)[C@H](C)NC(=O)[C@H](CCC(N)=O)NC(=O)[C@H](CCCCN)NC(=O)[C@H](CC(=O)O)NC(=O)[C@](C)(CC(C)C)NC(=O)[C@H](Cc1ccc(O)cc1)NC(=O)[C@@H](NC(=O)[C@H](CO)NC(=O)[C@H](Cc1ccc(O)cc1)NC(=O)[C@H](CC(=O)O)NC(=O)[C@H](CO)NC(=O)[C@@H](NC(=O)[C@H](Cc1ccccc1)NC(=O)[C@@H](NC(=O)CNC(=O)[C@H](CCC(=O)O)NC(=O)CSCC(=O)NCCN1C(=O)CSC1=O)[C@@H](C)O)[C@@H](C)O)[C@@H](C)CC)C(C)C)C(N)=O)C(=O)O [Compound 70]
- Emax (GLP-1R; Table 3): 102%
- EC50 (GLP-1R; [1]): 0.1 to 1 nM
- Emax (GLP-1R; Table 3A): 102%
- EC50 (GLP-1R; [2]): 0.1 to 1 nM
- Emax (GIP-R; Table 3): 86%
- EC50 (GIP-R; [3]): 1 to 10 nM
- Emax (GIP-R; Table 3A): 86%
- EC50 (GIP-R; [4]): 1 to 10 nM

Source: patent US20260176320A1, “MODULATORS OF G-PROTEIN COUPLED RECEPTORS” (priority 2018, published 2026)
